Data as given in patent US8415469B2, “Compounds and methods for kinase modulation, and indications therefor” (Plexxikon Inc., priority 2005, dated 2013).

Columns and labels:
Type in all cases: biochemical
[1] = biological target: T1, Ret (Homo sapiens, UniProt P07949); assay: AlphaScreen kinase assay, Ret; settings: read-out: IC50, activity toward kinase Ret
T1 construct: P1378.pET-SF BI-PTP RET H661-R1012 HIS; made in house
T1 sequence (P07949 with tags, fused parts or gaps): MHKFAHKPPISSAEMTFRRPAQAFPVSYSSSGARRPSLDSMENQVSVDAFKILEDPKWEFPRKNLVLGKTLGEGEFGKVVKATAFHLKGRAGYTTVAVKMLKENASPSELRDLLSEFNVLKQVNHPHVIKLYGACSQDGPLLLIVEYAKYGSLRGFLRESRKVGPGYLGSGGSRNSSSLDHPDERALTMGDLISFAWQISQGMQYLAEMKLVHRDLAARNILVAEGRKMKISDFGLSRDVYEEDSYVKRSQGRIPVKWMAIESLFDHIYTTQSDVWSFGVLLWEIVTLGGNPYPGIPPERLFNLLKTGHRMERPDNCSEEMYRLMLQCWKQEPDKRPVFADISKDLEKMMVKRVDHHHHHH

[2] = biological target: T2, B-Raf (Homo sapiens, UniProt P15056); assay: AlphaScreen kinase assay, B-Raf; settings: read-out: IC50, activity toward kinase B-Raf
T2 construct: purchased Upstate Biotechnology

[3] = biological target: T3, Pyk2 (Homo sapiens, UniProt Q14289); assay: AlphaScreen kinase assay, Pyk2; settings: read-out: IC50, activity toward kinase Pyk2
T3 construct: purchased Upstate Biotechnology

[4] = biological target: T4, Yes (Homo sapiens, UniProt P07947); assay: Z'-Lyte FRET kinase assay (Invitrogen), Yes; settings: read-out: IC50, activity toward kinase Yes
T4 construct: purchased Invitrogen (Carlsbad, Calif.), screening service
Excerpt: The effect of potential modulators of kinase activity can be measured in a variety of different assays known in the art. For example, direct radiometric, indirect FRET or AlphaScreen assays may be used to assess the level of phosphorylation of a substrate in the presence of test compounds in order to determine the inhibitory affect of the compound on the kinase. Invitrogen (Carlsbad, Calif.) uses a FRET based assay for Btk, EGFR, EphB2, Flt3, lrak4, Kdr, MAP2K1, MAPKAPK2, PDGFRB, PKC theta, Stk6 and Yes. For these assays, compounds of the invention were screened by Invitrogen using Z′-Lyte™ kinase assay.
Briefly, the Invitrogen kinase assay involves use of a specific peptide substrate optimized for each kinase, containing a fluorophore at each end that make up the FRET pair. The peptide sensitivity to proteolytic cleavage depends on phosphorylation of the peptide. Non-phosphorylated peptide is cleaved by a protease while peptide phosphorylated by the kinase is not cleaved. Cleavage of the peptide disrupts the FRET between the donor (coumarin) and acceptor (fluorescein) fluorophores, resulting in an increase in the ratio of donor emission to acceptor emission. The emission ratio of coumarin to fluorescein is used to assess the reaction progress. The extent of phosphorylation is determined from the emission ratio, which is low when the kinase is active (phosphorylated peptide is not cleaved, FRET pair connected) or higher for inhibited kinase (non-phosphorylated peptide is cleaved, FRET pair separated). Thus, the assay involves a kinase reaction in the presence of varying concentrations of a given compound, a development reaction with site specific protease, and detection of the fluorescent emission ratio of coumarin and fluorscein. […] Reaction conditions for each kinase are determined to provide optimal reaction times, incubation temperature, kinase and ATP concentrations. Test samples are made up in 1× kinase buffer (50 mM HEPES pH 7.5, 50 mM MgCl2, 5 mM EGTA, 0.05% BRIJ-35) and compound at desired concentration prepared in DMSO such that the final DMSO is 1%. […] Typically, assay plates are prepared to 10 μl final volume per sample, adding 2.5 μl of compound at 4× the desired concentration in 4% DMSO (serial dilution of compound provides concentration curve), 5 μl of the desired kinase mixed with Z′-LYTE™ peptide substrate (2× in 2× kinase buffer, final peptide at 2 μM), and 2.5 μl of 4×ATP solution. All kinase except for MAP2K1 were at 10 μM ATP in the kinase reaction, while MAP2K1 was at 100 μM. Samples are mixed and the kinase reaction is incubated 1 hour at room temperature, after which 5 μl of development solution is added and mixed. After incubation for another 1 hour at room temperature, 5 μl of stop reagent is added to each sample and mixed. The fluorescence signals are measured to determine the emission ratio.

[5] = biological target: T5, B-Raf V600E (Homo sapiens, UniProt P15056, V600E); assay: AlphaScreen kinase assay, B-Raf V600E; settings: read-out: IC50, activity toward kinase B-Raf V600E
T5 construct: P4254. pFastBacBD-CDC37 BRAF D437-K722-X, V600E; His6 with pFastBac HT leader (TEV site) (N); made in house; host or cells: Sf9 (baculovirus; chaperone CDC37 co-expressed)

[6] = biological target: T6, c-Raf-1 (Homo sapiens, UniProt P04049); assay: AlphaScreen kinase assay, c-Raf-1; settings: read-out: IC50, activity toward kinase c-Raf-1
T6 construct: purchased Upstate Biotechnology

[7] = biological target: T7, Stk6 (Homo sapiens, UniProt O14965); assay: Z'-Lyte FRET kinase assay (Invitrogen), Stk6; settings: read-out: IC50, activity toward kinase Stk6
T7 construct: purchased Invitrogen (Carlsbad, Calif.), screening service
T7 sequence (O14965 1-403): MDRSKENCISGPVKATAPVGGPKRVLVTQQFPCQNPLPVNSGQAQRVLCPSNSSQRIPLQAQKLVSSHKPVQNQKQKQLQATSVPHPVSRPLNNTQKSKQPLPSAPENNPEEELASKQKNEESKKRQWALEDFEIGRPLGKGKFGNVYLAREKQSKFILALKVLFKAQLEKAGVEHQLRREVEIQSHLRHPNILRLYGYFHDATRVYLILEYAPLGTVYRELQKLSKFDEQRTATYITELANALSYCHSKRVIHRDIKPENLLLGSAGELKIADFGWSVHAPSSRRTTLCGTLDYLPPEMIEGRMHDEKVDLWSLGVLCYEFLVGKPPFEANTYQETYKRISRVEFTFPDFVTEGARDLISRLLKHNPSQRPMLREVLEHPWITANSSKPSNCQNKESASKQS

[8] = biological target: T8, FGFR1 (Homo sapiens, UniProt P11362, C488A/C584S); assay: AlphaScreen kinase assay, FGFR1; settings: read-out: IC50, activity toward kinase FGFR
T8 construct: P1351.pET N6 BI-PTP FGFR A458-E765-X C488A, C584S; made in house; host or cells: E. coli (PTP1B co-expressed)

[9] = biological target: T9, Kit (Homo sapiens, UniProt P10721); assay: AlphaScreen kinase assay, Kit; settings: read-out: IC50, activity toward kinase Kit
T9 construct: P1332.N6 BI PTP KIT M552-K948-X COD; His6 (N); made in house; host or cells: E. coli (PTP1B co-expressed)

[10] = biological target: T10, Src (Homo sapiens, UniProt P12931); assay: AlphaScreen kinase assay, Src; settings: read-out: IC50, activity toward kinase Src
T10 construct: P1144. pET-N6 BI-PTP SRC V86-L536-X; made in house

[11] = biological target: T11, Fak (Homo sapiens, UniProt Q05397); assay: AlphaScreen kinase assay, Fak; settings: read-out: IC50, activity toward kinase Fak
T11 construct: P1358.pFastBacHtb FAK S411-Q686-X; His6 with pFastBacHTb leader (TEV site) (N); made in house; host or cells: Sf9 (baculovirus)

[12] = biological target: T12, Fms (Homo sapiens, UniProt P07333); assay: AlphaScreen kinase assay, Fms; settings: read-out: IC50, activity toward kinase Fms
T12 construct: purchased Upstate Biotechnology

[13] = biological target: T13, Zap70 (Homo sapiens, UniProt P43403); assay: AlphaScreen kinase assay, Zap70; settings: read-out: IC50, activity toward kinase Zap70
T13 construct: P1868.pFastBac1 ZAP70 D327-G606 HIS, WT; His7 (HHHHHHH) (C); made in house
T13 sequence (P43403 with tags, fused parts or gaps): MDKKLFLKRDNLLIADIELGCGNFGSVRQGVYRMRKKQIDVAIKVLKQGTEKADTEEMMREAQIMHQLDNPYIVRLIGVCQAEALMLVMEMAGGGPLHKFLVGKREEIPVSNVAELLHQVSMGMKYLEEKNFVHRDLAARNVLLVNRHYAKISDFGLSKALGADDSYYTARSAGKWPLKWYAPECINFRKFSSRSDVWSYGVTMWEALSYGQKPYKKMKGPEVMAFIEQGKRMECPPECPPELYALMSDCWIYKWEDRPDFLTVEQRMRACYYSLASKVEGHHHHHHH
Excerpt: AlphaScreen assay was used to screen additional kinases. The assay is similarly dependent on the phosphorylation of a peptide substrate. In this assay, an antibody that recognizes phosphorylated substrate is bound to an acceptor bead. The peptide substrate is attached to biotin, which binds to a donor head that contains streptavidin. Thus phosphorylated substrate is bound by antibody and streptavidin, bringing the donor and acceptor heads into close proximity when kinase is not inhibited. The donor produces singlet oxygen which results in emission from the acceptor when they are in close proximity. Conversely, when kinase is inhibited, the donor and acceptor beads are not associated and the emission from the acceptor is reduced.
AlphaScreen assays were done using compounds dissolved in DMSO to a concentration of 20 mM. The compounds were diluted accordingly to the desired final concentrations in each sample well, using 1:3 serial dilution for a total of 8 concentration points.

T4 sequence (P07947 whole entry): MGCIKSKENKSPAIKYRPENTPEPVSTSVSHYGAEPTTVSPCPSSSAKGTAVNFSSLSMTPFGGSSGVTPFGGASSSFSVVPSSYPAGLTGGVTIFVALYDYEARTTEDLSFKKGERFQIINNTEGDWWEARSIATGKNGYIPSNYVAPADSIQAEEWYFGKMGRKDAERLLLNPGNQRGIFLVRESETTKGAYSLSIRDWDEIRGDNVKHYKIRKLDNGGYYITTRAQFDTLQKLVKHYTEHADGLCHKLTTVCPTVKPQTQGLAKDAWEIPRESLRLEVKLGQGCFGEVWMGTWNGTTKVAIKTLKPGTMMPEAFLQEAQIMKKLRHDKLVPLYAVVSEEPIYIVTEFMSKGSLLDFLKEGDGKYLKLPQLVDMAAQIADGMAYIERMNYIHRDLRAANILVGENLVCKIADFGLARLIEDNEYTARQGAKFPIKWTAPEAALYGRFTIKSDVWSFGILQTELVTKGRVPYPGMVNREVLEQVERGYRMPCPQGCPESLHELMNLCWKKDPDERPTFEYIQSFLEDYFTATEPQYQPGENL
T5 sequence (P15056 with tags, fused parts or gaps V600E): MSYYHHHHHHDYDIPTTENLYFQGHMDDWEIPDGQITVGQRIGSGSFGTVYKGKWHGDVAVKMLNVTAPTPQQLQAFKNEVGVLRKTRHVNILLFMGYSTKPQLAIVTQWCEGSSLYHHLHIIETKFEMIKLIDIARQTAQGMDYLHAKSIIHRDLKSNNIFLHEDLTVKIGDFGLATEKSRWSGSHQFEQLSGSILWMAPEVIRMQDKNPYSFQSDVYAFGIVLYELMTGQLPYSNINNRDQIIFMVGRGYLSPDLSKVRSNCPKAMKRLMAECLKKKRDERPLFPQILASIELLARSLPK
T2 sequence (P15056 whole entry): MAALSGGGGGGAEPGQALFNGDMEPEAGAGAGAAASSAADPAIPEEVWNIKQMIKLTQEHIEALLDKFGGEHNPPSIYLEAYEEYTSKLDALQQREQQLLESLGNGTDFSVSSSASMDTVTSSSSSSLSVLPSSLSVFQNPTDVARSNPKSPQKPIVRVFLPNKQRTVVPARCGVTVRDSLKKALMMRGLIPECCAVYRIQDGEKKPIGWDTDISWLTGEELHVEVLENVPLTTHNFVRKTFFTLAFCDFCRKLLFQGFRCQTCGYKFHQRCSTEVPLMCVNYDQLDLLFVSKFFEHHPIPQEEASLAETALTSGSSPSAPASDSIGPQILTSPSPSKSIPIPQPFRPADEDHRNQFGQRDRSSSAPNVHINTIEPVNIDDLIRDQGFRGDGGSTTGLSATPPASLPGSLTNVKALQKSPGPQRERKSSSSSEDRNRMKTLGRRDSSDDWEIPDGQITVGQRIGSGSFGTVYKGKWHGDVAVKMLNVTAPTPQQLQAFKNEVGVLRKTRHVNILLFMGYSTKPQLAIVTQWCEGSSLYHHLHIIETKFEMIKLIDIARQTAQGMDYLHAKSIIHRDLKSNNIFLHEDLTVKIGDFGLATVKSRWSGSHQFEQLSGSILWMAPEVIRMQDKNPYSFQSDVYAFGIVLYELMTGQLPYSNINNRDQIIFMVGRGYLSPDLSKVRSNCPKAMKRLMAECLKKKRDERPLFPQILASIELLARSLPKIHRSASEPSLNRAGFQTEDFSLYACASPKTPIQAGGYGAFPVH
T3 sequence (Q14289 whole entry): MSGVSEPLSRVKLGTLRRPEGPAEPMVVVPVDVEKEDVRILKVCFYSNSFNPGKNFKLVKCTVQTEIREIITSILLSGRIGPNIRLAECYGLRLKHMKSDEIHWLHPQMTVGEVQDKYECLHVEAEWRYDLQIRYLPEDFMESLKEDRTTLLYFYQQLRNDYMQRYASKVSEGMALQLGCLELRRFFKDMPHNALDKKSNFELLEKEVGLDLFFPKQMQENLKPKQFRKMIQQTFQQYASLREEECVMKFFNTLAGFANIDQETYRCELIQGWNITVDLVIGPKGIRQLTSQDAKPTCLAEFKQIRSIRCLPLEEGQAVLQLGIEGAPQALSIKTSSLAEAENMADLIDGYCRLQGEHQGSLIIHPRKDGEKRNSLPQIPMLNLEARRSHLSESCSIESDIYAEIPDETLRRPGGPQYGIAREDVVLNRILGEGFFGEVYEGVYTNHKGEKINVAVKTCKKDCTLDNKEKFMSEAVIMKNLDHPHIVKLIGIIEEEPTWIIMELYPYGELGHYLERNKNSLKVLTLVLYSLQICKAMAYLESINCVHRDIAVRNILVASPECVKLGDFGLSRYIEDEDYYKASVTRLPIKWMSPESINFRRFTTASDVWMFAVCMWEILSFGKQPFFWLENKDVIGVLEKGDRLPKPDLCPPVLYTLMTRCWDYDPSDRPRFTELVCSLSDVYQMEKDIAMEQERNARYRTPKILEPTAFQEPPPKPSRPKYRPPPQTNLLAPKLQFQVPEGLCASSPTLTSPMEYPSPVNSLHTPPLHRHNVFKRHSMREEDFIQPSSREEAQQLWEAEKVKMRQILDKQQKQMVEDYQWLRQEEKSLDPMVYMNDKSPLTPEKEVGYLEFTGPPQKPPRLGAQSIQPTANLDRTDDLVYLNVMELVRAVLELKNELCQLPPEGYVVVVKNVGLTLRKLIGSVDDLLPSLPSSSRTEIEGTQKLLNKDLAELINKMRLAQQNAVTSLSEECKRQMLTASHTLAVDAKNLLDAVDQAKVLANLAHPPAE
T6 sequence (P04049 whole entry): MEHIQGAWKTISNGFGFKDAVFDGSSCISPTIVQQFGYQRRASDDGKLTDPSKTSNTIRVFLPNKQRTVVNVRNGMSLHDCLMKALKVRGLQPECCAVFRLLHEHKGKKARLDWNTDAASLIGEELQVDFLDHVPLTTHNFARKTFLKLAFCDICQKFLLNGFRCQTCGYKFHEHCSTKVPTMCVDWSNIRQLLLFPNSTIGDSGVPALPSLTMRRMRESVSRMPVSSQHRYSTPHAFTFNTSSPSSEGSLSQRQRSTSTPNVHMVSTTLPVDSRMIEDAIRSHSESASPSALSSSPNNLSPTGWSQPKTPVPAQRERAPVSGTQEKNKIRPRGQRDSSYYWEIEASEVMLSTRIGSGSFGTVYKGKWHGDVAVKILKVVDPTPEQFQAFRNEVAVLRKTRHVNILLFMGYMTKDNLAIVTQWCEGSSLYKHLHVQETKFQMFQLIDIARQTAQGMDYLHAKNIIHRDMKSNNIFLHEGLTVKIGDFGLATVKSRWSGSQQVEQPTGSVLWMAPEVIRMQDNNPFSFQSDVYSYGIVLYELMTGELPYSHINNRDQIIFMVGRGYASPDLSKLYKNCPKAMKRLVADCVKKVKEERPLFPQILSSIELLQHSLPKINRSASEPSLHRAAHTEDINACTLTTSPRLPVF
T8 sequence (P11362 458-765 C488A/C584S): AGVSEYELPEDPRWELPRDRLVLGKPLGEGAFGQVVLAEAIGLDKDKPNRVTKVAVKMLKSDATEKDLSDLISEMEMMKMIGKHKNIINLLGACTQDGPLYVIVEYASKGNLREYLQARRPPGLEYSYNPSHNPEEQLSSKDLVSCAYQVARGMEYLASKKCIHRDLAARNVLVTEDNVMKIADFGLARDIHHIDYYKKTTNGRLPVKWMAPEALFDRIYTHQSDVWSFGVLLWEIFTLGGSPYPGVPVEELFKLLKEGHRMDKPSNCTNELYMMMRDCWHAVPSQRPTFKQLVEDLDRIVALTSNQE
T9 sequence (P10721 with tags, fused parts or gaps): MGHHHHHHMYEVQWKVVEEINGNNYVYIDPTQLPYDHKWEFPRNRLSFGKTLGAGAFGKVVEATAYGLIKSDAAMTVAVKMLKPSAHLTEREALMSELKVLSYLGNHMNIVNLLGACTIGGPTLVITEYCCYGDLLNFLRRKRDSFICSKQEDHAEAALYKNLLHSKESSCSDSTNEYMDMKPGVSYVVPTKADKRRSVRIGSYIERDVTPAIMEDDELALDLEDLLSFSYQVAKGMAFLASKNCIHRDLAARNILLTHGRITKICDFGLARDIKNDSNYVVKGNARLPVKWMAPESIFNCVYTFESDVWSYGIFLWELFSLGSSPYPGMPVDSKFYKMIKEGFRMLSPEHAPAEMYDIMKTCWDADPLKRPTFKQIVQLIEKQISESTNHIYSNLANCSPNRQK
T12 sequence (P07333 20-972): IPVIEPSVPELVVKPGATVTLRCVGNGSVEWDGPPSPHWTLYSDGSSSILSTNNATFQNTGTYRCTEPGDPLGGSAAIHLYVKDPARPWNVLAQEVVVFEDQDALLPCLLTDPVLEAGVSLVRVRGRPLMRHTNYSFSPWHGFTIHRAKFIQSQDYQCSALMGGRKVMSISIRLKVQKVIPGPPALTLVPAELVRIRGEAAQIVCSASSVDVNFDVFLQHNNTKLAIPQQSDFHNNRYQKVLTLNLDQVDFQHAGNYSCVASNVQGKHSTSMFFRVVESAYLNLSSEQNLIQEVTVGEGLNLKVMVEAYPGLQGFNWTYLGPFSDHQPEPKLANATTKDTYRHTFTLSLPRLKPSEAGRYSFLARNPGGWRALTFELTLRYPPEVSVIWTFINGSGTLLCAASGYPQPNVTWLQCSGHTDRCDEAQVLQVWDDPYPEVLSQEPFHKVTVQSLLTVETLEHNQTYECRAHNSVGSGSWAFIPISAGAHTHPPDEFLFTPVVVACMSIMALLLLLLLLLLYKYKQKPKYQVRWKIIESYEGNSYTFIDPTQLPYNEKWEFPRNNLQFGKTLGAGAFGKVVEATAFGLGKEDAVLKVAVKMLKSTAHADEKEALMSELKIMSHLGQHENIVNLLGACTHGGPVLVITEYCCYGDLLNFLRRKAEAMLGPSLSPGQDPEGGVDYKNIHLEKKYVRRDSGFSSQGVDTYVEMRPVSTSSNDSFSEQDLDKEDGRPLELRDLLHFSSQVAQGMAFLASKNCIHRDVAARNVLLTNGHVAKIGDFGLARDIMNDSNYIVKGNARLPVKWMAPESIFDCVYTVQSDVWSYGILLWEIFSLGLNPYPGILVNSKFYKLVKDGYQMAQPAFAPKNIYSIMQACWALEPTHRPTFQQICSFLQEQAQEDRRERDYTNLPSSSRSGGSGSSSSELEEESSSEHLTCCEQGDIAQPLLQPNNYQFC

IC50 [13] [µM] | Structure (SMILES) | also measured
 | O=C(Nc1ccc(F)c(C(O)c2c[nH]c3ncc(-c4cccnc4)cc23)c1F)OCc1ccccc1 (stereo not drawn) [Compound P-0095, {2,4-Difluoro-3-[hydroxy-(5-pyridin-3-yl-1H-pyrrolo[2,3b]pyridin-3-yl)-methyl]-phenyl}-carbamic acid benzyl ester] | IC50 [1]: ≤ 10 µM; IC50 [2]: ≤ 10 µM; IC50 [3]: ≤ 10 µM; IC50 [4]: ≤ 10 µM; IC50 [5]: ≤ 10 µM
 | CCCS(=O)(=O)Nc1ccc(F)c(C(O)c2c[nH]c3ncc(Br)cc23)c1F (stereo not drawn) [Compound P-0188, Propane-1-sulfonic acid {3-[(5-bromo-1H-pyrrolo[2,3-b]pyridin-3-yl)-hydroxy-methyl]-2,4-difluoro-phenyl}-amide] | IC50 [6]: ≤ 10 µM; IC50 [2]: ≤ 10 µM; IC50 [3]: ≤ 10 µM; IC50 [4]: ≤ 10 µM; IC50 [7]: ≤ 10 µM; IC50 [5]: ≤ 10 µM
 | CS(=O)(=O)Nc1ccc(F)c(C(=O)c2c[nH]c3ncc(-c4cccc(S(C)(=O)=O)c4)cc23)c1F [Compound P-0210] | IC50 [6]: ≤ 10 µM; IC50 [8]: ≤ 10 µM; IC50 [1]: ≤ 10 µM; IC50 [2]: ≤ 10 µM; IC50 [9]: ≤ 10 µM; IC50 [10]: ≤ 10 µM; IC50 [11]: ≤ 10 µM; IC50 [12]: ≤ 10 µM; IC50 [4]: ≤ 10 µM; IC50 [5]: ≤ 10 µM
≤ 10 | O=C(c1ccccc1)c1c[nH]c2c1cc(Br)c[n+]2[O-] [Compound P-0275] | 
≤ 10 | Clc1ccnc2[nH]ccc12 [Compound P-0342] | 
≤ 10 | COc1ccc(Cc2c[nH]c3ncccc23)cc1F [Compound P-0359] | 
≤ 10 | Clc1ccc(/C=C\c2c[nH]c3ncccc23)cn1 [Compound P-0360] | 
≤ 10 | c1cncc(-c2ccnc3[nH]ccc23)c1 [Compound P-0387] | 
≤ 10 | Cc1cc2cccnc2[nH]1 [Compound P-0394] | 
≤ 10 | O=C(CCc1c[nH]c2ncccc12)NCc1cccnc1 [Compound P-0456] | 
≤ 10 | CC(C)(C)NCc1c[nH]c2ncccc12 [Compound P-0476] | 
≤ 10 | O=S(=O)(NCc1c[nH]c2ncccc12)c1cccc(-c2cccc(CO)c2)c1 [Compound P-0484] | 
≤ 10 | N#Cc1ccc(/C=C\c2c[nH]c3ncccc23)cc1 [Compound P-0500] | 
≤ 10 | CS(=O)(=O)c1ccc(CNCc2[nH]c3ncccc3c2-c2cccc(CO)c2)cc1 [Compound P-0523] | 
≤ 10 | COC(=O)c1ccc(CCc2c[nH]c3ncccc23)cc1 [Compound P-0586] | 
≤ 10 | Fc1ccc(Cc2nc(-c3c[nH]c4ncccc34)no2)cc1 [Compound P-0602] | 
≤ 10 | O=C(OCc1ccccc1)c1cnc2[nH]ccc2c1 [Compound P-0607] | 
≤ 10 | CCOC(=O)C(Cc1c[nH]c2ncccc12)C(=O)OCC [Compound P-0642] | 
≤ 10 | O=Cc1c[nH]c2nccc(Cl)c12 [Compound P-0649] | 
≤ 10 | COc1cccc(-c2ccc(S(=O)(=O)NCc3c[nH]c4ncccc34)s2)c1 [Compound P-0676] | 
≤ 10 | FC(F)(F)c1ccc(-c2ccnc3[nH]ccc23)cc1 [Compound P-0694] | 
≤ 10 | COc1ccc(S(=O)(=O)NCc2ccnc3[nH]ccc23)cc1 [Compound P-0724] | 
≤ 10 | CN(Cc1ccncc1)Cc1[nH]c2ncccc2c1-c1ccc(C(N)=O)cc1 [Compound P-0727] | 
≤ 10 | COc1ccc(OC)c(S(=O)(=O)NCc2c[nH]c3ncccc23)c1 [Compound P-0808] | 
≤ 10 | COCCN1CCN(Cc2[nH]c3ncccc3c2-c2ccc(C(N)=O)cc2)CC1 [Compound P-0856] | 
≤ 10 | O=S(=O)(NCc1c[nH]c2ncccc12)c1ccc(O)cc1 [Compound P-0859] | 
≤ 10 | Brc1c(CNCc2cccnc2)[nH]c2ncccc12 [Compound P-0875] | 
≤ 10 | CCCOc1ccc(-c2c[nH]c3ncccc23)cc1 [Compound P-0878] | 
≤ 10 | c1cnc2[nH]c(CNCCc3ccncc3)cc2c1 [Compound P-0880] | 

Structure (SMILES) | IC50 [13] [µM] | also measured
COc1cc(CCNCc2cc3cccnc3[nH]2)ccc1O [Compound P-0836] | ≤ 10 | 
